From ChEMBL document CHEMBL1201862, “PubChem BioAssay data set” (2004)
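Compound exposure: 48 hours, 5 concentrations, 96-well plates. Abbreviation: GI50, concentration required for 50% inhibition of growth.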 Calls of active or inactive are those of the source. Cut-off read from the data, not from the text of the source: active = GI50 up to about 1.1 µM and inactive = higher.

How the values were obtained:
Assay in all cases: NCI anticancer screen, dose series, 48 h
786-0 = test system: 786-0
A498 = test system: A498
A549 = test system: A549
ACHN = test system: ACHN
BT-549 = test system: BT-549
CAKI-1 = test system: CAKI-1
CCRF-CEM = test system: CCRF-CEM
COLO 205 = test system: COLO 205
DLD-1 = test system: DLD-1
DMS-114 = test system: DMS-114
DMS-273 = test system: DMS-273
DU-145 = test system: DU-145
EKVX = test system: EKVX
HCC 2998 = test system: HCC 2998
HCT-116 = test system: HCT-116
HCT-15 = test system: HCT-15
HL-60 = test system: HL-60
HOP-18 = test system: HOP-18
HOP-62 = test system: HOP-62
HOP-92 = test system: HOP-92
HT-29 = test system: HT-29
Hs-578T = test system: Hs-578T
IGROV-1 = test system: IGROV-1
K562 = test system: K562
KM-20L2 = test system: KM-20L2
KM12 = test system: KM12
LXFL 529 = test system: LXFL 529
M14 = test system: M14
M19-MEL = test system: M19-MEL
MCF7 = test system: MCF7
MDA-MB-231 = test system: MDA-MB-231
MDA-MB-435 = test system: MDA-MB-435
MOLT-4 = test system: MOLT-4
Malme-3M = test system: Malme-3M
NCI-H226 = test system: NCI-H226
NCI-H23 = test system: NCI-H23
NCI-H460 = test system: NCI-H460
NCI-H522 = test system: NCI-H522
OVCAR-3 = test system: OVCAR-3
OVCAR-4 = test system: OVCAR-4
OVCAR-5 = test system: OVCAR-5
OVCAR-8 = test system: OVCAR-8
RPMI-8226 = test system: RPMI-8226
RXF 393 = test system: RXF 393
SF-268 = test system: SF-268
SF-295 = test system: SF-295
SF-539 = test system: SF-539
SK-MEL-28 = test system: SK-MEL-28
SK-MEL-2 = test system: SK-MEL-2
SK-MEL-5 = test system: SK-MEL-5
SK-OV-3 = test system: SK-OV-3
SN12C = test system: SN12C
SNB-19 = test system: SNB-19
SNB-75 = test system: SNB-75
SNB-78 = test system: SNB-78
SR = test system: SR
SW-620 = test system: SW-620
T47D = test system: T47D
TK-10 = test system: TK-10
U-251 = test system: U-251
UACC-257 = test system: UACC-257
UACC-62 = test system: UACC-62
UO-31 = test system: UO-31
XF498 = test system: XF498

COc1cccc2c1C(=O)C=CC2=O
GI50 (786-0): 11.5 µM (inactive)
GI50 (A498): 16.2 µM (inactive)
GI50 (A549): 20 µM (inactive)
GI50 (ACHN): 4.39 µM (inactive)
GI50 (BT-549): 15.5 µM (inactive)
GI50 (CAKI-1): 7.66 µM (inactive)
GI50 (CCRF-CEM): 0.281 µM (active)
GI50 (COLO 205): 7.06 µM (inactive)
GI50 (DLD-1): 7.19 µM (inactive)
GI50 (DMS-114): 4.92 µM (inactive)
GI50 (DMS-273): 15 µM (inactive)
GI50 (DU-145): 19.2 µM (inactive)
GI50 (EKVX): 18.5 µM (inactive)
GI50 (HCC 2998): 15.3 µM (inactive)
GI50 (HCT-116): 3.44 µM (inactive)
GI50 (HCT-15): 7.85 µM
GI50 (HL-60): 0.32 µM (active)
GI50 (HOP-18): 10.4 µM (inactive)
GI50 (HOP-62): 19.9 µM (inactive)
GI50 (HOP-92): 1.99 µM (inactive)
GI50 (HT-29): 11 µM (inactive)
GI50 (Hs-578T): 15.4 µM (inactive)
GI50 (IGROV-1): 12.2 µM (inactive)
GI50 (K562): 1.32 µM (inactive)
GI50 (KM-20L2): 16.7 µM (inactive)
GI50 (KM12): 9.82 µM (inactive)
GI50 (LXFL 529): 2.33 µM (inactive)
GI50 (M14): 8.49 µM (inactive)
GI50 (M19-MEL): 4.45 µM (inactive)
GI50 (MCF7): 1.93 µM (inactive)
GI50 (MDA-MB-231): 2.15 µM (inactive)
GI50 (MDA-MB-435): 10.1 µM (inactive)
GI50 (MOLT-4): 0.526 µM (active)
GI50 (Malme-3M): 15.5 µM (inactive)
GI50 (NCI-H226): 19.1 µM (inactive)
GI50 (NCI-H23): 14.8 µM (inactive)
GI50 (NCI-H460): 15.6 µM (inactive)
GI50 (NCI-H522): 2.39 µM (inactive)
GI50 (OVCAR-3): 1.85 µM (inactive)
GI50 (OVCAR-4): 1.95 µM (inactive)
GI50 (OVCAR-5): 18.9 µM (inactive)
GI50 (OVCAR-8): 3.58 µM (inactive)
GI50 (RPMI-8226): 2.1 µM (inactive)
GI50 (RXF 393): 6.76 µM (inactive)
GI50 (SF-268): 6.73 µM (inactive)
GI50 (SF-295): 15.6 µM (inactive)
GI50 (SF-539): 16.1 µM (inactive)
GI50 (SK-MEL-28): 17.5 µM (inactive)
GI50 (SK-MEL-2): 10.1 µM (inactive)
GI50 (SK-MEL-5): 15.3 µM (inactive)
GI50 (SK-OV-3): 21.8 µM (inactive)
GI50 (SN12C): 14 µM (inactive)
GI50 (SNB-19): 15.5 µM (inactive)
GI50 (SNB-75): 14.8 µM (inactive)
GI50 (SNB-78): 4.54 µM (inactive)
GI50 (SR): 0.269 µM (active)
GI50 (SW-620): 6.18 µM (inactive)
GI50 (T47D): 2.22 µM (inactive)
GI50 (TK-10): 14.2 µM (inactive)
GI50 (U-251): 6.81 µM (inactive)
GI50 (UACC-257): 15.5 µM (inactive)
GI50 (UACC-62): 10.9 µM (inactive)
GI50 (UO-31): 15.4 µM (inactive)
GI50 (XF498): 2.52 µM (inactive)
